The source made the active and inactive calls. The calls are words filed in the database; no cut-off is given here.
Assays:
[1] = biological target: Voltage-dependent T-type calcium channel subunit alpha-1G (Homo sapiens, UniProt O43497); experiment: Inhibition of human Cav3.1 alpha1G expressed in HEK293 cells assessed as inhibition of calcium influx by FLIPR assay; assay type: cell-based
[2] = Bradycardic activity in Hartley guinea pig right atrial muscles assessed as reduction of initial spontaneous beat rate after 30 mins; assay type: functional; conditions: Cavia porcellus, Muscle tissue, 0.5 h
Rattus norvegicus [3] = experiment: Antihypertensive activity in spontaneously hypertensive rat assessed as reduction of mean blood pressure at 30 mg/kg, po; assay type: functional; design: scale not given: the % may be the effect or the level left
Rattus norvegicus [4] = experiment: Antihypertensive activity in spontaneously hypertensive rat assessed as reduction of mean blood pressure at 30 mg/kg, po after 8 hrs; assay type: functional, organism-based; design: dose 30 mg/kg
Rattus norvegicus [5] = experiment: Toxicity in spontaneously hypertensive rat assessed as effect on reflex tachycardia at 30 mg/kg, po after 8 hrs; assay type: organism-based; design: dose 30 mg/kg, route oral; conditions: in vivo

Voltage-dependent T-type calcium channel subunit alpha-1G, sequence (O43497 whole entry): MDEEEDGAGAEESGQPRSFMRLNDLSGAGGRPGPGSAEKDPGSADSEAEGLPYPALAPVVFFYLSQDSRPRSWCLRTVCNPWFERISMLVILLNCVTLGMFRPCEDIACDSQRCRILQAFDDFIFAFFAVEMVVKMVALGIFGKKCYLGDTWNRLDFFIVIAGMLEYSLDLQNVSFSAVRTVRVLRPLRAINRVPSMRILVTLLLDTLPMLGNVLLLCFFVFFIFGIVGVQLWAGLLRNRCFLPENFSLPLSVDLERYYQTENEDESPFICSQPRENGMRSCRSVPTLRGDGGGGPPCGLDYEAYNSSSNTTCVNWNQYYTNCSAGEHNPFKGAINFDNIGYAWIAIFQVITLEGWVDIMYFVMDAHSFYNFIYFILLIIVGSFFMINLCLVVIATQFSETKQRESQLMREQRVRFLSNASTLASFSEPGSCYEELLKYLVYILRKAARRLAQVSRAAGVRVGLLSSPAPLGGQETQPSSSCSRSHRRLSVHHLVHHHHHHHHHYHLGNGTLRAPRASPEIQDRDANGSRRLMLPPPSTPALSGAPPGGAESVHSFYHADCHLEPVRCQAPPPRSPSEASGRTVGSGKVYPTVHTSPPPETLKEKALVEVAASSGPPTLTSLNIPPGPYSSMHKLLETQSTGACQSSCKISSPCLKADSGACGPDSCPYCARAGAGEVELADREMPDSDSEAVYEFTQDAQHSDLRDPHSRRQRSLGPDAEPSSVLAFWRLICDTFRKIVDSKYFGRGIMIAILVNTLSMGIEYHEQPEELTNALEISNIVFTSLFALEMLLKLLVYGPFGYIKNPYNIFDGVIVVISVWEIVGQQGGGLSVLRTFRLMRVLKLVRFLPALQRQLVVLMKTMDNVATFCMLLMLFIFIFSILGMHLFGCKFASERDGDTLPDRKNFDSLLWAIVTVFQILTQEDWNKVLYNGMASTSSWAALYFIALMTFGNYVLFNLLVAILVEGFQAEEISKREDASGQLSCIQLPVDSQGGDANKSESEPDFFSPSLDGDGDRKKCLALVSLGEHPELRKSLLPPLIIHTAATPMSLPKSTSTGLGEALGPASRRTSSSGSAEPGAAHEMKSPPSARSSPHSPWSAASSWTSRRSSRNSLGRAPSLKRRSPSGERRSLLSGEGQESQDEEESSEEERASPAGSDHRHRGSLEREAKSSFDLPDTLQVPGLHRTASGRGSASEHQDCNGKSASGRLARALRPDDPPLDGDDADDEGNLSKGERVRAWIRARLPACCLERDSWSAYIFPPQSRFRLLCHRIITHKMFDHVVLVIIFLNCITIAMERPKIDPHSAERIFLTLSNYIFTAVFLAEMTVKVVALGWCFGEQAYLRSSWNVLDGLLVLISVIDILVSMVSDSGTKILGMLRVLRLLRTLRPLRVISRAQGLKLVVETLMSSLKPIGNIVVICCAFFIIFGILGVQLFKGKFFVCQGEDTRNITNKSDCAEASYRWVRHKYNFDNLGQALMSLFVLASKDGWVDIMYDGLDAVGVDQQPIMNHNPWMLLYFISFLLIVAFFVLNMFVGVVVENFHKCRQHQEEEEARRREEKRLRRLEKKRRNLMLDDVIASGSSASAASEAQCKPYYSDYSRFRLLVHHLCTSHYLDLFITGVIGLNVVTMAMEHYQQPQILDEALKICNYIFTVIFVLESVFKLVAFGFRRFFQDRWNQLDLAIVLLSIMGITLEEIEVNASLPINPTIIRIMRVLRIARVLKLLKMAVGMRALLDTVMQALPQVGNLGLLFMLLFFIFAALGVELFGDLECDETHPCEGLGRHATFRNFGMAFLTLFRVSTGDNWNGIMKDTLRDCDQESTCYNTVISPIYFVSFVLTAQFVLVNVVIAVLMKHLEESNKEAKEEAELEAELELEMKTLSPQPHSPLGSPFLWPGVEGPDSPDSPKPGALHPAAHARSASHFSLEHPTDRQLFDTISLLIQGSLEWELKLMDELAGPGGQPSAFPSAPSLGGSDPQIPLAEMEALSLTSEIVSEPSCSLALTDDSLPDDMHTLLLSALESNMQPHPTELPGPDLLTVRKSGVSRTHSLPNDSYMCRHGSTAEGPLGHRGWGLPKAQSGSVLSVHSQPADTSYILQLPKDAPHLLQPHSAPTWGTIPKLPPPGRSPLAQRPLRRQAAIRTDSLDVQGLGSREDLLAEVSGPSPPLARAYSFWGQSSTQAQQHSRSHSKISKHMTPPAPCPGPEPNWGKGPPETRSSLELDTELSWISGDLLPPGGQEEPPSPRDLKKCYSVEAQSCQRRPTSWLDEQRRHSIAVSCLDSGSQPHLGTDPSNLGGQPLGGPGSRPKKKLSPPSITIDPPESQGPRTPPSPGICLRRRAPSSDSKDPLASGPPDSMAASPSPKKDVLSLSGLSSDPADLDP

Compound CCC(CC)(CNC(=O)C1CCN(Cc2cccc(OC)c2)CC1)c1ccc(F)cc1 has an IC50 [1] of 94 nM.
Work on O=C(NCC1(c2ccc(F)cc2)CCCCC1)C1CCN(Cc2ccccc2)CC1 yielded an IC50 [1] of 510 nM.
For O=C(CCC1(c2ccc(F)cc2)CCCCC1)C1CCN(Cc2ccccc2)CC1, the IC50 [1] was 2000 nM.
Compound CCC(CC)(CNC(=O)C1CCN(CCOc2ccccc2)CC1)c1ccc(F)cc1 has an IC50 [1] of 260 nM.
Compound Fc1ccc(C2(CNCC3CCN(Cc4ccccc4)CC3)CCCCC2)cc1 has an IC50 [1] of 1200 nM.
For O=C(NCC1(c2ccc(F)cc2)CCCCC1)C1CCCN(Cc2ccccc2)C1 (configuration not stated), the IC50 [1] was 1200 nM.
Compound CCC(CC)(CNC(=O)C1CCN(CCc2ccc(F)cc2)CC1)c1ccc(F)cc1 has an IC50 [1] of 180 nM.
For COc1ccc(CN2CCC(C(=O)NCC3(c4ccc(F)cc4)CCCCC3)CC2)cc1OC, the IC50 [1] was 320 nM and the EC30 [2] was 2100 nM.
CCC(CC)(CNC(=O)C1CCN(Cc2ccccc2)CC1)c1ccc(F)cc1 gave an IC50 [1] of 85 nM.
O=C(CC1(c2ccc(F)cc2)CCCCC1)NC1CCN(Cc2ccccc2)CC1 showed an IC50 [1] of 860 nM.
CN(CC1(c2ccc(F)cc2)CCCCC1)C(=O)C1CCN(Cc2ccccc2)CC1 showed an IC50 [1] of 750 nM.
For O=C(NCC1(c2ccc(F)cc2)CCOCC1)C1CCN(Cc2ccccc2)CC1, the IC50 [1] was 2200 nM.
For O=C(NCC1(c2ccc(F)cc2)CCCC1)C1CCN(Cc2ccccc2)CC1, the IC50 [1] was 220 nM.
Compound CCC(CC)(CNC(=O)C1CCN(Cc2cccc(F)c2)CC1)c1ccc(F)cc1 has an IC50 [1] of 130 nM.
CCC(CC)(CNC(=O)C1CCN(CCCCc2ccccc2)CC1)c1ccc(F)cc1 showed an IC50 [1] of 250 nM.
Work on CCCC(CCC)(CNC(=O)C1CCN(Cc2ccccc2)CC1)c1ccc(F)cc1 yielded an IC50 [1] of 370 nM.
CCC(CC)(CNC(=O)C1CCN(CCc2ccccc2F)CC1)c1ccc(F)cc1 showed an IC50 [1] of 90 nM.
With O=C(NCC1(c2ccc(F)cc2)CCC1)C1CCN(Cc2ccccc2)CC1 the IC50 [1] was 390 nM.
For CCC(CC)(CNC(=O)C1CCN(CCc2ccc(OC)cc2)CC1)c1ccc(F)cc1, the IC50 [1] was 770 nM.
CCC(CC)(CNC(=O)C1CCN(CCc2ccccc2)CC1)c1ccc(F)cc1 gave an IC50 [1] of 89 nM, an EC30 [2] of 2500 nM and an Activity (Rattus norvegicus [3]) of 22%. For the same compound, the Activity (Rattus norvegicus [4]) was “Active” and the Activity (Rattus norvegicus [5]) was “Non-toxic”.
For CCC(CC)(CNC(=O)C1CCN(Cc2ccccc2OC)CC1)c1ccc(F)cc1, the IC50 [1] was 120 nM.
CCC(CC)(CNC(=O)C1CCN(Cc2ccccc2F)CC1)c1ccc(F)cc1 showed an IC50 [1] of 36 nM and an EC30 [2] of 4200 nM.
In the case of CCC(CC)(CNC(=O)C1CCN(Cc2ccc(OC)cc2)CC1)c1ccc(F)cc1, the IC50 [1] is reported as 200 nM.
With O=C(NCC1(c2ccc(F)cc2)CCCCC1)C1CCCCN1Cc1ccccc1 (configuration not stated) the IC50 [1] was 3000 nM.
CCC(CC)(CNC(=O)C1CCN(Cc2ccc(F)cc2)CC1)c1ccc(F)cc1 gave an IC50 [1] of 82 nM.
For CCC(CC)(CNC(=O)C1CCN(CCCc2ccccc2)CC1)c1ccc(F)cc1, the IC50 [1] was 240 nM.
With CCC(CC)(CNC(=O)C1CCN(CCc2cccc(F)c2)CC1)c1ccc(F)cc1 the IC50 [1] was 130 nM.
COCC(=O)O[C@]1(CCN(C)CCCc2nc3ccccc3[nH]2)CCc2cc(F)ccc2[C@@H]1C(C)C [MIBEFRADIL] showed an EC30 [2] of 2900 nM.
With CCC(CC)(CNC(=O)C1CCN(CCc2cccc(OC)c2)CC1)c1ccc(F)cc1 the IC50 [1] was 140 nM.
CCC(CC)(CNC(=O)C1CCN(CCc2ccccc2OC)CC1)c1ccc(F)cc1 showed an IC50 [1] of 170 nM.
CC(C)(CNC(=O)C1CCN(Cc2ccccc2)CC1)c1ccc(F)cc1 gave an IC50 [1] of 130 nM.

— ChEMBL document CHEMBL1817645, “Synthesis and pharmacological evaluation of 1-alkyl-N-[2-ethyl-2-(4-fluorophenyl)butyl]piperidine-4-carboxamide derivatives as novel antihypertensive agents” (Bioorg Med Chem, 2011)
